Eleven molecules from patent US6867179B1, “Methods of inducing hair growth and coloration” (Trustees of Boston University, priority 1994, dated 2005) can be followed below.

Series [1] concerns p75^NTR-NIH 3T3 cells. The series can be described thus: Effect of KGA-containing peptides on survival of beta-amyloid treated p75NTR-NIH 3T3 cells. It is filed as cell-based. The conditions noted are these: 250 nM peptide, 250 nM preaggregated beta-amyloid 1-40, 72 hours. How it is done:
p75^NTR-NIH 3T3 cells were maintained in DME supplemented with 10% calf serum until 80% confluent. The cells were washed and incubated in serum free DME containing transferrin (5 microg/ml) and insulin (5 microg/ml). Triplicate dishes were supplemented with diluent or preaggregated beta-amyloid 1-40 (250 nM) as […]. […] After 72 hours, cells were rinsed in PBS and cultures were incubated in 0.25% trypsin at 37° C. Cell yields were determine using a particle counter.

The subject of series [2] is human p75. Put plainly: p75 apoptotic signaling in 3T3-p75 cells (aggregation, c-jun, JNK, caspase-3, DNA fragmentation). Conditions: peptide pretreatment, then βA. It is filed as cell-based. The procedure:
To investigate p75 early signaling, NIH-3T3 cells engineered to constitutively express human p75 (3T3-p75), were stimulated with a known p75 ligand β amyloid (βA), and the distribution of p75 on the cell surface was analysed using immunohistochemistry and confocal laser microscopy. […] (FIG. 13)
To determine if the initial step of p75 aggregation is required for initiation of apoptosis, 3T3-p75 were pretreated with an HPLC purified cyclic peptide (CATDIKGAEC) (SEQ ID NO:9) that binds the ligand binding site of p75, and then cultures were stimulated with βA or with diluent alone.

Series [3] has as its system p75. Put plainly: p75 signal transduction in melanocytes (JNK activation, intracellular ceramide). The format is cell-based, human. How it is done: To investigate p75 signal transduction, it was first determined by RT-PCR that trkA and trkC are not expressed in MC maintained in choleragen/TPA-free medium. MC were incubated with 10 ng/ml nerve growth factor (NGF) or neurotrophin-3 (NT-3) for 30 minutes and c-Jun amino terminal kinase (JNK) activation was determined. […] Furthermore, within 3 hours p75 activation by NGF, but not by NT-3, lead to a 2-fold increase of intracellular ceramide. As before, ceramide increase was abrogated by pre-incubation with the cyclic peptide. Because in cell lines, UV irradiation directly activates cell surface receptors such as Fas and the TNFα receptor, sham- or UV-irradiated MC were used to determine p75 activation.

The test system of series [4] is Bax. Put plainly: Bax level in beta-amyloid treated melanocytes (Western blot). It is filed as cell-based, human. The procedure: To investigate the mechanism of -amyloid-mediated melanocyte death, Bax levels in melanocytes treated with 25 uM of 1-40 or 25-35-amyloid peptides was examined. Within 4 days of treatment, Bax was induced 3 fold in melanocytes stimulated either with the beta-amyloid 1-40 or 25-35 fragments as compared to melanocytes treated with the 40-1 control fragment or an irrelevant HPLC purified protein of similar size.
Melanocytes were maintained as above. Four days after addition of 25 microM of beta-amyloid fragments 1-40 40-1 or 25-35; or 25 microM of HPLC-purified bovine corticotropin releasing factor (CRF) (Bachem Calif.) (MW 4.7 kD) as an additional negative control, cells were extracted in RIPA buffer (50 mM Tris-HCl [pH 8.0], 0.15 M NaCl, 0.5% sodium deoxycholate, 1% Triton X-100) in the presence of 1 microg/ml aprotinin and 75 microg/ml phenylmethylsulfonyl fluoride (PMSF), sonicated for 1-3 seconds and centrifuged. 40 microg of protein per lane were separated on 12% SDS/PAGE and blotted onto nitrocellulose paper (overnight, 25C). To verify equal loading a duplicate 13% SDS/PAGE was performed and stained with Coomasie Blue R250 stain. […] Bound antibodies were detected using enhanced chemiluminescence kit (Amersham Corp.). […]
A general note: In western blotting, separated proteins are transferred to a membrane and probed.

In series [5] the test system is MM4 cells. The series can be described thus: MM4 cell yields after UV or sham irradiation with growth factor supplementation. The format is cell-based, human. How it is done: Melanocytes or MM4 cells were plated in 60 mm diameter tissue culture dishes. Melanocytes were maintained in Medium 199 supplemented with 7% fetal bovine serum (FBS), 10 ng/ml epidermal growth factor (Collaborative Research), […] (Sigma), […] (Collaborative Research), […] (Sigma), 1.4×10^−6 M hydrocortisone (Calbiochem), […] (Calbiochem), and 10 ng/ml basic fibroblast growth factor (Collaborative Research) (basal melanocyte medium). MM4 cells were maintained in 55.3% DME, 27.6% L15, 15% FBS, 1% nonessential amino acids (GIBCO BRL), 2 mM glutamine and 10 µg/ml insulin. After 24 hours, medium was replaced by phosphate buffered saline (PBS) and cells were irradiated using a 1 KW xenon arc solar simulator (XMN 1000-21, Optical Radiation Corp., Azuza, Calif.) with 5, 10, or 25 mJ/cm^2 UV through the petri dish plastic cover. Irradiance was adjusted to 4×10^−5 UV cm^−2 and metered with a research radiometer (model IL1700A, International Light, Newburyport, Mass.) fitted with a UVB probe at 285 Å 5 nm. After UV irradiation, cells were maintained in their respective media without FBS for 2 days (MM4 cells) or 3 days (melanocytes) and processed as indicated. Sham irradiated control cultures were handled identically but laced under a dark cloth adjacent to the UV beam.
FIGS. 2B and 2D show MM4 cell yields 24-72 hours after a single UV irradiation of 10 mJ/cm^2. FIGS. 2C and 2e show MM4 cell yields 24-72 hours after sham irradiation. Cells in FIGS. 2B and 2C were supplemented with 50 ng/ml NGF or diluent alone. Cells in FIGS. 2D and 2E were supplemented with 50 ng/ml bFGF or diluent alone.
Melanocytes or MM4 cells were plated as described in Example 1. After irradiation, melanocytes were maintained in basal melanocyte medium lacking FBS and hydrocortisone, with 50 ng/ml NGF or diluent alone (melanocyte medium). MM4 cells were maintained in DME supplemented with 50 ng/ml NGF or diluent alone.

Series [6] relates to BCL-2. Put plainly: BCL-2 antisense oligonucleotides in UV-irradiated MM4 cells with or without NGF. The format is cell-based, human. The source says:
Purified phosphorothioate oligonucleotides were purchased from Quality Controlled Biochemicals, Inc. (Hopkinton, Mass.). 19 mer oligonucleotides were designed based on the published human BCL-2 sequence (Tsujimoto, Y. and Croce, C. M., Proc. Natl. Acad. Sci. USA, 83:5214-5218 (1986)). The sequence chosen was directed against the […] of the coding region starting 4 bases before the methionine initiation site. Nonsense oligonucleotides were used as control. Sequences used (all written 5′ to 3′): Antisense CCCAGCGTGCGCCATCCTT (SEQ ID NO: 7); Nonsense CTCCCACTCGTCATTCGAC (SEQ ID NO: 8).
MM4 cells were maintained in 60 mm diameter tissue culture dishes in 55.3% DME, 27.6% L15, 15% FBS, 1% nonessential amino acids (GIBCO BRL), 2 mM glutamine and 10 µg/ml insulin. Near confluent cells were UV irradiated with 10 mJ/cm^2. Immediately after irradiation cells were incubated with 10 uM antisense or nonsense BCL-2 oligonucleotides in suspension at […] for 30 minutes. Then cells were plated in tissue culture dishes in the presence or absence of NGF (50 ng/ml). Cells were supplemented with fresh oligonucleotides every 12 hours. Cell yield and BCL-2 level were determined 48 hours after irradiation. Cell yield was determined by counting cells in at least three representative field per each condition.

The target of series [7] is human p75 nerve growth factor receptor (human) (UniProt P08138). The series can be described thus: cell-based or functional assay.
Series [8] concerns the target p75^NTR over expressed on permanently transfected NIH 3T3 fibroblasts (p75^NTR NIH 3T3 cells). Put plainly: cell-based or functional assay.
Series [9] has as its system p75 NGF-R. The series can be described thus: p75 NGF-R antisense oligonucleotides in UV-irradiated, NGF-supplemented melanocytes. It is filed as cell-based, human. The conditions noted are these: UV 20 mJ/cm^2, 10 uM oligonucleotide, 48 hours. How it is done:
The following sequences were used: Antisense 5' to 3' […] NO: 5); Nonsense 5' to 3° […] NO: 6) (negative control). […] Near confluent cells were irradiated using a 1 KW xenon arc solar simulator (XMN 1000-21, Optical Radiation Corp., Azuza, Calif.) with 20 mJ/cm^2 UV through the petri dish plastic cover. Irradiance was adjusted to 4×10^-5 UV cm^-2 and metered with a research 20 radiometer (model I[…], International Light, Newburyport, Mass.) fitted with a UVB probe at 285 Å 5 nm. […] After the initial 30 minute incubation cells were plated in 35 mm dishes in basal melanocyte medium without serum. Cells were supplemented with fresh oligonucleotides every 12 hours for 48 hours. Cells were visualized by phase contrast microscopy and pictures of representative fields were obtained. Cell yields were determined by counting cells in several representative fields.

The target in series [10] is p75^NTR over expressed on permanently transfected NIH 3T3 fibroblasts (p75^NTR NIH 3T3 cells). The series can be described thus: competition with 125I beta-amyloid 1-40 on p75^NTR-NIH 3T3 cells, NGF 0-100 ng/ml, counting of lysates.
The target is the same in series [11]. Put plainly: competition with 125I beta-amyloid 1-40 on p75^NTR-NIH-3T3 cells in suspension, 4 hours, counting of lysates.
Series [12] deals with the molecule itself. The series can be described thus: cross-linking of 3T3-p75 cells stimulated with βA, western blot with anti p75 antibodies.
Setting [13] is: pre-incubation with cyclic peptide.

No end group written: not given here.

“CATDIKGAEC (also: cyclic, ring type not given here)”: the “Cell yields, cyclic peptide and beta-amyloid versus beta-amyloid alone” value in series [1] is reported as “significantly higher”. Besides, in [2], the c-jun transcription result is “decreased c-jun transcription” and the p75 aggregation entry is listed as “inhibited p75 aggregation”. In addition, in series [3] (setting [13]), the “JNK activation in NGF stimulated cells” value is listed as “abrogated JNK activation” and the NGF-induced ceramide increase entry is on record as “abrogated”. As for “25-35: beta-amyloid fragment 25-35 (GSNKGAIIGLM; Amyloid-beta protein 42; UniProt P05067 696-706, looked up, fragment)”, the “Bax induction versus 40-1 control fragment or irrelevant protein” value in series [4] (25 uM, within 4 days) stood at 3 fold. For the same molecule, in [4] (25 microM, four days), the “Bax level as compared to the 40-1 peptide” value is 160%. In the case of “bFGF: basic fibroblast growth factor, a major mitogen for cells of melanocytic origin”, in series [5] (UV 10 mJ/cm^2, 50 ng/ml bFGF), the “MM4 cell survival after UV irradiation” value is recorded as “failed to improve MM4 cell survival”. Besides, in series [5] (sham irradiation, 50 ng/ml bFGF), the “Effect on sham irradiated MM4 cells” value was “mitogenic effect”.

In the case of “CCCAGCGTGCGCCATCCTT (DNA, all phosphorothioate, methylation of C not given here; listed as Homo sapiens) [BCL-2 antisense oligonucleotides]”, the “BCL-2 levels (Western blot)” value in [6] (10 uM antisense, 48 hours after UV 10 mJ/cm^2) is on record as “almost undetectable”. Besides, the “Cell yields, NGF plus BCL-2 antisense versus NGF plus nonsense” value in series [6] (UV 10 mJ/cm^2, 10 uM oligonucleotide, NGF 50 ng/ml, 48 hours) was “significantly lower”.

On to “beta-amyloid 1-40 peptide (from UniProt P05067 1-40)”, for which the melanocyte cell yield (% decrease in cell yield) in series [7] was 59. In series [8], this molecule displayed a cell yield (% reduction of cell yield) of 60.

In the case of “GGCACCTGCCCCCATCGCC (DNA, all phosphorothioate, methylation of C not given here; listed as Homo sapiens) [antisense NGF-R, 19 mer antisense against the 5′ end of the human p75 NGF-R coding region]”, the “NGF effect on melanocyte survival” value in [9] is “NGF does not have an effect on melanocyte survival”.

With nerve growth factor (ligand), the intracellular ceramide (fold increase) in series [7] was determined as 2. Also, the maximum inhibition of ^125I beta-amyloid binding in series [10] was 38 % inhibition.

For “CKGAIC (also: cyclic, ring type not given here) [cyclic KGA-containing hexapeptide]”, in series [1], the “Cell yields, cyclic peptide and beta-amyloid versus beta-amyloid alone” value is given as “significantly higher”. What is called IC50 is the concentration at which inhibition is half-maximal. In turn, CVGSNKGAIC (not fully specified (bridges); also: cyclic peptide, ring type not given here) [cyclic peptide … (SEQ ID NO: 4)] registered an IC50 in series [11] of 25 nM.

B1: NT-3: neurotrophin-3 (protein, UniProt P20783 139-257, looked up)
Neurotrophin-3: YAEHKSHRGEYSVCDSESLWVTDKSSAIDIRGHQVTVLGEIKTGNSPVKQYFYETRCKEARPVKNGCRGIDDKHWNSQCKTSQTYVRALTSENNKLVGWRWIRIDTSCVCALSRKIGRT
For the molecule B1, the “UV-induced JNK activation” value in series [3] (NT-3 pre-treatment, within 30 minutes of UV) was “partially decreased”. Also, the “Increase of intracellular ceramide” value in series [3] (within 3 hours) was “not by NT-3”.

B2: human p75 nerve growth factor receptor (receptor, UniProt P08138 29-427, looked up)
chain: KEACPTGLYTHSGECCKACNLGEGVAQPCGANQTVCEPCLDSVTFSDVVSATEPCKPCTECVGLQSMSAPCVEADDAVCRCAYGYYQDETTGRCEACRVCEAGSGLVFSCQDKQNTVCEECPDGTYSDEANHVDPCLPCTVCEDTERQLRECTRWADAECEEIPGRWITRSTPPEGSDSTAPSTQEPEAPPEQDLIASTVAGVVTTVMGSSQPVVTRGTTDNLIPVYCSILAAVVVGLVAYIAFKRWNSCKQNKQGANSRPVNQTPPPEGEKLHSDSGISVDSQSLHDQQPHTQTASGQALKGDGGLYSSLPPAKREEVEKLLNGSAGDTWRHLAGELGYQPEHIDSFTHEACPVRALLASWATQDSATLDALLAALRRIQRADLVESLCSESTATSPV
notes: whole, on cells; also called p75 NGF-R; p75^NTR
In the case of B2, the binding result in series [12] is reported as “binds”.
